Legend:
Type in all cases: biochemical
[1] = target: T1, recombinant alpha-glucosidase II (murine full-length glucosidase II, alpha and beta subunits, Glu 2) (Mus musculus, UniProt Q8BHN3); experiment: Alpha-glucosidase II assay (4-methylumbelliferyl-alpha-D-pyranoside substrate, fluorescence); conditions: Glucosidase 2; read-out: Glu2 IC50
T1 construct: made in house; host or cells: HEK-293T cells transduced with BacMam viruses (75% alpha, 25% beta); protein harvested from culture supernatant

[2] = target: rat sucrase (partially purified alpha-glucosidase from intestinal rat powder) (Rattus norvegicus, UniProt P23739); experiment: Intestinal alpha-glucosidase assay, sucrose substrate (Glucose GO Kit)
Sequence of rat sucrase (partially purified alpha-glucosidase from intestinal rat powder) (P23739 whole entry): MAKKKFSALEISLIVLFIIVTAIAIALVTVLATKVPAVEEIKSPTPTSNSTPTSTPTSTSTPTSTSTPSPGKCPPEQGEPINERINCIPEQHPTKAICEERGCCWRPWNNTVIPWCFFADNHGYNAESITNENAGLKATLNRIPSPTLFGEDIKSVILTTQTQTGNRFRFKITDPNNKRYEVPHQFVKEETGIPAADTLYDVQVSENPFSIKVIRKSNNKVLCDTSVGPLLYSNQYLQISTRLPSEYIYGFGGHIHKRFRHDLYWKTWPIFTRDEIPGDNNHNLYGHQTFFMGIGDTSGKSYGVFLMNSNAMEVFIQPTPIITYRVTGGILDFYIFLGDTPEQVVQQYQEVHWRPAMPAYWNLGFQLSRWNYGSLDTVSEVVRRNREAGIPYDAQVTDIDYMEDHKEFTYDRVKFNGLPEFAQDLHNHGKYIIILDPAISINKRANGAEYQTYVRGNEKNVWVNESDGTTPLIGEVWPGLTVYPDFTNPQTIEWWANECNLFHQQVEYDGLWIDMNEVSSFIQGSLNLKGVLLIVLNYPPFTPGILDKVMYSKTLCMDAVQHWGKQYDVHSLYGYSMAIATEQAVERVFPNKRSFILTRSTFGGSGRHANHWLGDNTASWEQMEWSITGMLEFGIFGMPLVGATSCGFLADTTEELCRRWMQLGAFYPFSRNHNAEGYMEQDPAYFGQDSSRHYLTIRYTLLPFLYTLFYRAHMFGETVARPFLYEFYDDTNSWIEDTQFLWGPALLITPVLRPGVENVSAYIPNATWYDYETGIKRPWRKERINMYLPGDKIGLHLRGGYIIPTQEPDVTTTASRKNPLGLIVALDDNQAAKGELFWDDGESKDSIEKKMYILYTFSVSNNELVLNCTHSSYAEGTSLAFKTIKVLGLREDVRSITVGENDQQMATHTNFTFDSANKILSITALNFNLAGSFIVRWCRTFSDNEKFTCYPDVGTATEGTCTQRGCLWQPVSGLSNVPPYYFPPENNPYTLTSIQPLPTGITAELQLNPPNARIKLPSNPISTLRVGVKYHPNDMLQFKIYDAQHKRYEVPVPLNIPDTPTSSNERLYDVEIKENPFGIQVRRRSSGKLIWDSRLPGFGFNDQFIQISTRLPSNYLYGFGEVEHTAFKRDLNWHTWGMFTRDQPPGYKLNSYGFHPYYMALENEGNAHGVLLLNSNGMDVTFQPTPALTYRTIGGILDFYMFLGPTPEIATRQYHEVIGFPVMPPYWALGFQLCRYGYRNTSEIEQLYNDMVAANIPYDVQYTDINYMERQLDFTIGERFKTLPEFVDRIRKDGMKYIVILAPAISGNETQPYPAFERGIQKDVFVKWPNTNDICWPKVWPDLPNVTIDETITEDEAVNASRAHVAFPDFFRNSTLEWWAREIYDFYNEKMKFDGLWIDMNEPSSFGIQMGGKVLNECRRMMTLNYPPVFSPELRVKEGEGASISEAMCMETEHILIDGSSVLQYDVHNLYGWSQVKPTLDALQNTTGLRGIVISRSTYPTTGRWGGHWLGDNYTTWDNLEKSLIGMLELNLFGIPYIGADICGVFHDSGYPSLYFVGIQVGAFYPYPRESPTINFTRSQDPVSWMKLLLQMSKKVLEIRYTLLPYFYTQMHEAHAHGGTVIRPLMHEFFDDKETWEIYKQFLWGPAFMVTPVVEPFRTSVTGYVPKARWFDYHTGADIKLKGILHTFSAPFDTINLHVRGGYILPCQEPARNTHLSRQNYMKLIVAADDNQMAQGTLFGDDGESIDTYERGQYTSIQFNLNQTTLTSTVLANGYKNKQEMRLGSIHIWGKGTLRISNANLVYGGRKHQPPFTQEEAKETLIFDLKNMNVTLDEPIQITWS
In short: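 Enzyme from intestinal rat powder, partially purified, is exposed to compound for 60 min at 37 °C. Disaccharide substrate (maltose or sucrose respectively) then reacts 30 min at 37 °C. Heat-stopped samples are assayed for glucose, and percent inhibition versus concentration gives IC50 via 4-PL.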

[3] = target: T2, recombinant alpha-glucosidase I (human full-length glucosidase I, Glu 1) (Homo sapiens, UniProt Q13724); experiment: Alpha-glucosidase I assay (Amplex Red glucose detection, synthetic trisaccharide substrate); conditions: Glucosidase 1; read-out: Glu 1 IC50
T2 construct: 6-His (C); made in house; host or cells: HEK-293T cells transduced with BacMam virus (virus raised in Sf9)
T2 sequence (Q13724 1-837): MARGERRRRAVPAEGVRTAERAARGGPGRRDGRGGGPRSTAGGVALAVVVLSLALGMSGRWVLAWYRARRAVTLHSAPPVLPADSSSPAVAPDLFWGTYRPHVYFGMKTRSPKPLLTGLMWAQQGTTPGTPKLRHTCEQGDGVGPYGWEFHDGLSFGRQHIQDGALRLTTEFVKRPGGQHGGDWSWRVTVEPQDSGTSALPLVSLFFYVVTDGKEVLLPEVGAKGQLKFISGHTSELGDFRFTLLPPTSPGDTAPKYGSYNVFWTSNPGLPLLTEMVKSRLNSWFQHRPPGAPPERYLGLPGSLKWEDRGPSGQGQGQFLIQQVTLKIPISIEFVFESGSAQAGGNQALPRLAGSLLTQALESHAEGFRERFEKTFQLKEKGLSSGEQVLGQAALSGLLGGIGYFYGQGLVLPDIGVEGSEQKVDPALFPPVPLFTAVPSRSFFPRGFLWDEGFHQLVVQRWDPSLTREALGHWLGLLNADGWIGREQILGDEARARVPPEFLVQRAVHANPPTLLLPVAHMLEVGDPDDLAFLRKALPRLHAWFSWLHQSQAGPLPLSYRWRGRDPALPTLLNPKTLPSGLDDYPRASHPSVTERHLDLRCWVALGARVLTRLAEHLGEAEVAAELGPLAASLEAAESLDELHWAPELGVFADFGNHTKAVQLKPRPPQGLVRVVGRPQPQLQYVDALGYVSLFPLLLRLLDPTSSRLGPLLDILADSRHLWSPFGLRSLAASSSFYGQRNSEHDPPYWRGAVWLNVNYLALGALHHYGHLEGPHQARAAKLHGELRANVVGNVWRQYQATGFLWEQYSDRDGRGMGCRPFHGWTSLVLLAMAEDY
In short: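 Human full-length glucosidase I, His-tagged, […] and Ni-purified. Enzyme preincubated with compound dilutions 60 min at 37° C, then synthetic trisaccharide substrate 90 min at 37° C; stopped with 1.5M Tris pH 8.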

T1 sequence (O08795 15-521): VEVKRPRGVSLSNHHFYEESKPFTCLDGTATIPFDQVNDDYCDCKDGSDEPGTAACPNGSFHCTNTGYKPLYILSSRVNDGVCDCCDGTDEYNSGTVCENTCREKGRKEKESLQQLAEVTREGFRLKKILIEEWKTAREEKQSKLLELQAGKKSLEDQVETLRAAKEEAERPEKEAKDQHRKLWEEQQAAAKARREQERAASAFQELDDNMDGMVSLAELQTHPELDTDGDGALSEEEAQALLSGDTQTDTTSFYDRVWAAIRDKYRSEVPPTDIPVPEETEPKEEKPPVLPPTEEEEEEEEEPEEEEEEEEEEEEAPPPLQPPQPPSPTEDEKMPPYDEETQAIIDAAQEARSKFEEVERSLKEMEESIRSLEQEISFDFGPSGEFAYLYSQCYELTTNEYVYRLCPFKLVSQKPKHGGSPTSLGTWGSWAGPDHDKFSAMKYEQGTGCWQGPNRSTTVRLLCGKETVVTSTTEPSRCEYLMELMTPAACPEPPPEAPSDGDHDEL
T1 sequence (Q8BHN3 33-944): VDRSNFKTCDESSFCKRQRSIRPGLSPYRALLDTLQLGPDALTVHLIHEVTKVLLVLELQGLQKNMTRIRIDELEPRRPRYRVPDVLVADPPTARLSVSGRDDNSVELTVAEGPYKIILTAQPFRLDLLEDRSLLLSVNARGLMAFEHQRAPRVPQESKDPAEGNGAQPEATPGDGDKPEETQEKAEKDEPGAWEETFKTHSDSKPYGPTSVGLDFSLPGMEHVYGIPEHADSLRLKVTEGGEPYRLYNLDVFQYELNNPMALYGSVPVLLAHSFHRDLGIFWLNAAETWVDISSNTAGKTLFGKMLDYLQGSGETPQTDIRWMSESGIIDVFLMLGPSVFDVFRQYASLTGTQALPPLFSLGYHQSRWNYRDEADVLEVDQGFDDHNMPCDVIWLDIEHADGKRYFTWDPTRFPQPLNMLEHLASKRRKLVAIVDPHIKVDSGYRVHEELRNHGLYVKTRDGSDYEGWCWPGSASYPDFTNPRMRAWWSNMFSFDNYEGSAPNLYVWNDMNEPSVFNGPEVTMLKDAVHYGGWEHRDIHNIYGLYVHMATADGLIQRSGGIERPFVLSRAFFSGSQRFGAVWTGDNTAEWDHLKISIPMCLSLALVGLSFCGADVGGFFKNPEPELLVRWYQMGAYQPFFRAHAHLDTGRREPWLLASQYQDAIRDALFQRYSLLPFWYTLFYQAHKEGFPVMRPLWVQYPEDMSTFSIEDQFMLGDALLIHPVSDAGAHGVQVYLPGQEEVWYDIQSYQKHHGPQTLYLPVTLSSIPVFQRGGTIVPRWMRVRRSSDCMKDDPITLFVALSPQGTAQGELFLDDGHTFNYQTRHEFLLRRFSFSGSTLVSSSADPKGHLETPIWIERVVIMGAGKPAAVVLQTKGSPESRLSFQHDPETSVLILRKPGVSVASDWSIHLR

Structure (SMILES)	IC50 [1]	IC50 [2]	IC50 [3]
COc1cc(Br)cc(NCCn2cc(CCN3C[C@H](O)[C@@H](O)[C@H](O)[C@H]3CO)c3ccccc32)c1 [Compound 1075, (2R,3R,4R,5S)-1-[2-(1-{2-[(3-bromo-5-methoxyphenyl)amino]ethyl}-1H-indol-3-yl)ethyl]-2-(hydroxymethyl)piperidine-3,4,5-triol]	0.15 µM	0.722 µM	1.92 µM
OC[C@@H]1[C@@H](O)[C@H](O)[C@@H](O)CN1CCc1cn(CCNc2ccccc2)c2ccccc12 [Compound 1076, (2R,3R,4R,5S)-2-(hydroxymethyl)-1-(2-{1-[2-(phenylamino)ethyl]-1H-indol-3-yl}ethyl)piperidine-3,4,5-triol]	0.066 µM	0.854 µM	1.31 µM
CC(C)c1cc(CCNc2ccc(N=[N+]=[N-])cc2[N+](=O)[O-])cc(CCN2C[C@H](O)[C@@H](O)[C@H](O)[C@H]2CO)c1 [Compound 1077, (2R,3R,4R,5S)-1-[2-(3-{2-[(4-azido-2-nitrophenyl)amino]ethyl}-5-(propan-2-yl)phenyl)ethyl]-2-(hydroxymethyl)piperidine-3,4,5-triol]	0.203 µM	8.14 µM	0.697 µM
O=[N+]([O-])c1cc(-c2ncc[nH]2)ccc1NCCc1ccc(CCN2C[C@H](O)[C@@H](O)[C@H](O)[C@H]2CO)cc1 [Compound 1078, (2R,3R,4R,5S)-2-(hydroxymethyl)-1-{2-[4-(2-{[4-(1H-imidazol-2-yl)-2-nitrophenyl]amino}ethyl)phenyl]ethyl}piperidine-3,4,5-triol]	0.095 µM	0.506 µM	0.2 µM
OC[C@@H]1[C@@H](O)[C@H](O)[C@@H](O)CN1Cc1cccc(CNc2ccc(N3CCOCC3)cc2)c1 [Compound 1081, (2R,3R,4R,5S)-2-(hydroxymethyl)-1-{[3-({[4-(morpholin-4-yl)phenyl]amino}methyl)phenyl]methyl}piperidine-3,4,5-triol]	70.4 µM	0.161 µM	0.169 µM
OC[C@@H]1[C@@H](O)[C@H](O)[C@@H](O)CN1Cc1cccc(CNc2ccc(-c3ccc[nH]3)cc2)c1 [Compound 1082, (2R,3R,4R,5S)-2-(hydroxymethyl)-1-{[3-({[4-(1H-pyrrol-2-yl)phenyl]amino}methyl)phenyl]methyl}piperidine-3,4,5-triol]	5.63 µM	0.025 µM	0.069 µM
OC[C@@H]1[C@@H](O)[C@H](O)[C@@H](O)CN1Cc1cccc(CNc2ccc(-c3cccnn3)cc2)c1 [Compound 1083, (2R,3R,4R,5S)-2-(hydroxymethyl)-1-{[3-({[4-(pyridazin-3-yl)phenyl]amino}methyl)phenyl]methyl}piperidine-3,4,5-triol]	9.99 µM	0.028 µM	0.072 µM
OC[C@@H]1[C@@H](O)[C@H](O)[C@@H](O)CN1Cc1cccc(CNc2ccc(-c3ncccn3)cc2)c1 [Compound 1084, (2R,3R,4R,5S)-2-(hydroxymethyl)-1-{[3-({[4-(pyrimidin-2-yl)phenyl]amino}methyl)phenyl]methyl}piperidine-3,4,5-triol]	26.6 µM	0.044 µM	0.079 µM
O=[N+]([O-])c1cc(CN2CCCO2)ccc1NCc1cccc(CN2C[C@H](O)[C@@H](O)[C@H](O)[C@H]2CO)c1 [Compound 1086]	44.2 µM	0.076 µM	0.132 µM
O=[N+]([O-])c1cc(C2=COCCO2)ccc1NCc1cccc(CN2C[C@H](O)[C@@H](O)[C@H](O)[C@H]2CO)c1 [Compound 1087, (2R,3R,4R,5S)-1-{[3-({[4-(5,6-dihydro-1,4-dioxin-2-yl)-2-nitro-phenyl]amino}methyl)phenyl]methyl}-2-(hydroxymethyl)piperidine-3,4,5-triol]	8.11 µM	< 0.001 µM	< 0.001 µM
O=[N+]([O-])c1cc(-c2ccc[nH]2)ccc1NCc1cccc(CN2C[C@H](O)[C@@H](O)[C@H](O)[C@H]2CO)c1 [Compound 1088, (2R,3R,4R,5S)-2-(hydroxymethyl)-1-{[3-({[2-nitro-4-(1H-pyrrol-2-yl)phenyl]amino}methyl)phenyl]methyl}piperidine-3,4,5-triol]	6.36 µM	< 0.001 µM	< 0.001 µM
O=[N+]([O-])c1cc(-c2cccnn2)ccc1NCc1cccc(CN2C[C@H](O)[C@@H](O)[C@H](O)[C@H]2CO)c1 [Compound 1089, (2R,3R,4R,5S)-2-(hydroxymethyl)-1-{[3-({[2-nitro-4-(pyridazin-3-yl)phenyl]amino}methyl)phenyl]methyl}piperidine-3,4,5-triol]	20.7 µM	0.023 µM	0.026 µM
O=[N+]([O-])c1cc(-c2ncccn2)ccc1NCc1cccc(CN2C[C@H](O)[C@@H](O)[C@H](O)[C@H]2CO)c1 [Compound 1090, (2R,3R,4R,5S)-2-(hydroxymethyl)-1-{[3-({[2-nitro-4-(pyrimidin-2-yl)phenyl]amino}methyl)phenyl]methyl}piperidine-3,4,5-triol]	13.8 µM	0.002 µM	0.007 µM
OC[C@@H]1[C@@H](O)[C@H](O)[C@@H](O)CN1Cc1ccc(CNc2ccc(CN3CCCO3)cc2)cc1 [Compound 1092, (2R,3R,4R,5S)-2-(hydroxymethyl)-1-({4-[({4-[(1,2-oxazolidin-2-yl)methyl]phenyl}amino)methyl]phenyl}methyl)piperidine-3,4,5-triol]	1.78 µM	0.048 µM	0.059 µM
OC[C@@H]1[C@@H](O)[C@H](O)[C@@H](O)CN1Cc1ccc(CNc2ccc(C3=COCCO3)cc2)cc1 [Compound 1093, (2R,3R,4R,5S)-1-{[4-({[4-(5,6-dihydro-1,4-dioxin-2-yl)phenyl]amino}methyl)phenyl]methyl}-2-(hydroxymethyl)piperidine-3,4,5-triol]	1.04 µM	0.007 µM	0.012 µM
OC[C@@H]1[C@@H](O)[C@H](O)[C@@H](O)CN1Cc1ccc(CNc2ccc(-c3ccc[nH]3)cc2)cc1 [Compound 1094, (2R,3R,4R,5S)-2-(hydroxymethyl)-1-{[4-({[4-(1H-pyrrol-2-yl)phenyl]amino}methyl)phenyl]methyl}piperidine-3,4,5-triol]	0.177 µM	0.057 µM	0.028 µM
OC[C@@H]1[C@@H](O)[C@H](O)[C@@H](O)CN1Cc1ccc(CNc2ccc(-c3ncccn3)cc2)cc1 [Compound 1096, (2R,3R,4R,5S)-2-(hydroxymethyl)-1-{[4-({[4-(pyrimidin-2-yl)phenyl]amino}methyl)phenyl]methyl}piperidine-3,4,5-triol]	1.43 µM	0.023 µM	0.015 µM
O=[N+]([O-])c1cc(C2=COCCO2)ccc1NCc1ccc(CN2C[C@H](O)[C@@H](O)[C@H](O)[C@H]2CO)cc1 [Compound 1099, (2R,3R,4R,5S)-1-{[4-({[4-(5,6-dihydro-1,4-dioxin-2-yl)-2-nitrophenyl]amino}methyl)phenyl]methyl}-2-(hydroxymethyl)piperidine-3,4,5-triol]	< 0.001 µM	< 0.001 µM	< 0.001 µM
O=[N+]([O-])c1cc(-c2ccc[nH]2)ccc1NCc1ccc(CN2C[C@H](O)[C@@H](O)[C@H](O)[C@H]2CO)cc1 [Compound 1100, (2R,3R,4R,5S)-2-(hydroxymethyl)-1-{[4-({[2-nitro-4-(1H-pyrrol-2-yl)phenyl]amino}methyl)phenyl]methyl}piperidine-3,4,5-triol]	< 0.001 µM	0.002 µM	< 0.001 µM
O=[N+]([O-])c1cc(-c2cccnn2)ccc1NCc1ccc(CN2C[C@H](O)[C@@H](O)[C@H](O)[C@H]2CO)cc1 [Compound 1101, (2R,3R,4R,5S)-2-(hydroxymethyl)-1-{[4-({[2-nitro-4-(pyridazin-3-yl)phenyl]amino}methyl)phenyl]methyl}piperidine-3,4,5-triol]	0.043 µM	0.004 µM	< 0.001 µM

Reference: patent US20250197372A1 (priority 2020, published 2025)
